Test results published in ChEMBL document CHEMBL3046590, “Design and synthesis of some thiazolotriazolyl esters as anti-inflammatory and analgesic agents” (Med Chem Res, 2012).

Columns and labels:
Mus musculus [1] = assay: Toxicity in Mus musculus BALB/c (mouse) assessed as behavioral changes at 50 to 200 mg/kg, po after 72 hr; format: organism-based; parameters: dose 50-200 mg/kg, route oral; settings: in vivo
Mus musculus [2] = assay: Toxicity in Mus musculus BALB/c (mouse) assessed as mortality at 50 to 200 mg/kg, po after 72 hr; format: organism-based; parameters: dose 50-200 mg/kg, route oral; settings: in vivo
Mus musculus [3] = assay: Antioxidant activity in Mus musculus BALB/c (mouse) stomach assessed as TBARS level at 100 mg/kg, po (reference value: 80.4 +/- 5.4 nmol/g ); format: functional
Mus musculus [4] = assay: Analgesic activity in Mus musculus BALB/c (mouse) assessed as inhibition of acetic acid-induced writhing at 100 mg/kg, po administered 1 hr followed by acetic acid challenge measured for 10 min; format: functional
Mus musculus [5] = assay: Anti-inflammatory activity in Mus musculus BALB/c (mouse) assessed as inhibition of carrageenan-induced paw swelling at 200 mg/kg, po administered 1 hr followed by carrageenan challenge measured at 360 min relative to control; format: functional
Mus musculus [6] = assay: Anti-inflammatory activity in Mus musculus BALB/c (mouse) assessed as inhibition of carrageenan-induced paw swelling at 100 mg/kg, po administered 1 hr followed by carrageenan challenge measured at 360 min relative to control; format: functional
Mus musculus [7] = assay: Anti-inflammatory activity in Mus musculus BALB/c (mouse) assessed as inhibition of carrageenan-induced paw swelling at 200 mg/kg, po administered 1 hr followed by carrageenan challenge measured at 270 min relative to control; format: functional
Mus musculus [8] = assay: Anti-inflammatory activity in Mus musculus BALB/c (mouse) assessed as inhibition of carrageenan-induced paw swelling at 100 mg/kg, po administered 1 hr followed by carrageenan challenge measured at 270 min relative to control; format: functional
Mus musculus [9] = assay: Anti-inflammatory activity in Mus musculus BALB/c (mouse) assessed as inhibition of carrageenan-induced paw swelling at 200 mg/kg, po administered 1 hr followed by carrageenan challenge measured at 180 min relative to control; format: functional
Mus musculus [10] = assay: Anti-inflammatory activity in Mus musculus BALB/c (mouse) assessed as carrageenan-induced paw swelling at 50 mg/kg, po administered 1 hr followed by carrageenan challenge measured at 360 min (reference value: 105 +/- 4.5 x 10^-2 mm); format: functional
Mus musculus [11] = assay: Anti-inflammatory activity in Mus musculus BALB/c (mouse) assessed as carrageenan-induced paw swelling at 200 mg/kg, po administered 1 hr followed by carrageenan challenge measured at 360 min (reference value: 105 +/- 4.5 x 10^-2 mm); format: functional
Mus musculus [12] = assay: Anti-inflammatory activity in Mus musculus BALB/c (mouse) assessed as carrageenan-induced paw swelling at 100 mg/kg, po administered 1 hr followed by carrageenan challenge measured at 360 min (reference value: 105 +/- 4.5 x 10^-2 mm); format: functional
Mus musculus [13] = assay: Anti-inflammatory activity in Mus musculus BALB/c (mouse) assessed as carrageenan-induced paw swelling at 50 mg/kg, po administered 1 hr followed by carrageenan challenge measured at 270 min (reference value: 78 +/- 8.4 x 10^-2 mm); format: functional
Mus musculus [14] = assay: Anti-inflammatory activity in Mus musculus BALB/c (mouse) assessed as carrageenan-induced paw swelling at 200 mg/kg, po administered 1 hr followed by carrageenan challenge measured at 270 min (reference value: 78 +/- 8.4 x 10^-2 mm); format: functional
Mus musculus [15] = assay: Anti-inflammatory activity in Mus musculus BALB/c (mouse) assessed as carrageenan-induced paw swelling at 100 mg/kg, po administered 1 hr followed by carrageenan challenge measured at 270 min (reference value: 78 +/- 8.4 x 10^-2 mm); format: functional
Mus musculus [16] = assay: Anti-inflammatory activity in Mus musculus BALB/c (mouse) assessed as carrageenan-induced paw swelling at 50 mg/kg, po administered 1 hr followed by carrageenan challenge measured at 180 min (reference value: 52 +/- 4.6 x 10^-2 mm); format: functional
Mus musculus [17] = assay: Anti-inflammatory activity in Mus musculus BALB/c (mouse) assessed as carrageenan-induced paw swelling at 200 mg/kg, po administered 1 hr followed by carrageenan challenge measured at 180 min (reference value: 52 +/- 4.6 x 10^-2 mm); format: functional
Mus musculus [18] = assay: Anti-inflammatory activity in Mus musculus BALB/c (mouse) assessed as carrageenan-induced paw swelling at 100 mg/kg, po administered 1 hr followed by carrageenan challenge measured at 180 min (reference value: 52 +/- 4.6 x 10^-2 mm); format: functional
Mus musculus [19] = assay: Anti-inflammatory activity in Mus musculus BALB/c (mouse) assessed as carrageenan-induced paw swelling at 50 mg/kg, po administered 1 hr followed by carrageenan challenge measured at 90 min (reference value: 39 +/- 5.6 x 10^-2 mm); format: functional
Mus musculus [20] = assay: Anti-inflammatory activity in Mus musculus BALB/c (mouse) assessed as carrageenan-induced paw swelling at 200 mg/kg, po administered 1 hr followed by carrageenan challenge measured at 90 min (reference value: 39 +/- 5.6 x 10^-2 mm); format: functional
Mus musculus [21] = assay: Anti-inflammatory activity in Mus musculus BALB/c (mouse) assessed as carrageenan-induced paw swelling at 100 mg/kg, po administered 1 hr followed by carrageenan challenge measured at 90 min (reference value: 39 +/- 5.6 x 10^-2 mm); format: functional
Mus musculus [22] = assay: Anti-inflammatory activity in Mus musculus BALB/c (mouse) assessed as inhibition of carrageenan-induced paw swelling at 50 mg/kg, po administered 1 hr followed by carrageenan challenge measured at 360 min relative to control; format: functional
Mus musculus [23] = assay: Anti-inflammatory activity in Mus musculus BALB/c (mouse) assessed as inhibition of carrageenan-induced paw swelling at 50 mg/kg, po administered 1 hr followed by carrageenan challenge measured at 270 min relative to control; format: functional
Mus musculus [24] = assay: Anti-inflammatory activity in Mus musculus BALB/c (mouse) assessed as inhibition of carrageenan-induced paw swelling at 100 mg/kg, po administered 1 hr followed by carrageenan challenge measured at 180 min relative to control; format: functional
Mus musculus [25] = assay: Anti-inflammatory activity in Mus musculus BALB/c (mouse) assessed as inhibition of carrageenan-induced paw swelling at 200 mg/kg, po administered 1 hr followed by carrageenan challenge measured at 90 min relative to control; format: functional

Row | SMILES | Activity (Mus musculus [1]) | Activity (Mus musculus [2]) | Activity (Mus musculus [3]) [nmol/g] | inhibition in vivo at 100 mg/kg (Mus musculus [4]) [%] | inhibition in vivo at 100 mg/kg (Mus musculus [6]) [%] | Activity (Mus musculus [10]) [×10⁻² mm] | Activity (Mus musculus [11]) [×10⁻² mm] | Activity (Mus musculus [12]) [×10⁻² mm] | Activity (Mus musculus [13]) [×10⁻² mm] | Activity (Mus musculus [14]) [×10⁻² mm] | Activity (Mus musculus [15]) [×10⁻² mm] | Activity (Mus musculus [16]) [×10⁻² mm] | Activity (Mus musculus [17]) [×10⁻² mm] | Activity (Mus musculus [18]) [×10⁻² mm] | Activity (Mus musculus [19]) [×10⁻² mm] | Activity (Mus musculus [20]) [×10⁻² mm] | Activity (Mus musculus [21]) [×10⁻² mm] | inhibition in vivo at 50 mg/kg (Mus musculus [22]) [%] | inhibition in vivo at 50 mg/kg (Mus musculus [23]) [%] | inhibition in vivo at 100 mg/kg (Mus musculus [24]) [%] | also measured
1 | CCOC(=O)Cc1csc2nc(-c3cc(Cl)cc(Cl)c3)nn12 | Non-toxic | Non-toxic | 200.1 | 35.9 | 42.8 | 96 | 83.1 | 60 | 78 | 61.3 | 65 | 49 | 43 | 66.2 | 70.4 | 41.6 | 40 |  |  |  | inhibition in vivo at 200 mg/kg (Mus musculus [5]): 20.8%; inhibition in vivo at 200 mg/kg (Mus musculus [7]): 21.4%; inhibition in vivo at 100 mg/kg (Mus musculus [8]): 16.7%; inhibition in vivo at 200 mg/kg (Mus musculus [9]): 17.3%
2 | CCOC(=O)Cc1csc2nc(Cc3cc(OC)c(OC)c(OC)c3)nn12 | Non-toxic | Non-toxic | 157.1 | 62.8 |  | 87.2 | 93.4 | 129.5 | 61.3 | 70.3 | 105 | 46 | 42.5 | 32.3 | 55.1 | 38 | 40.8 | 16.9 | 21.4 | 37.9 | 
3 | Sc1n[nH]c(-c2ccccc2)n1 | Non-toxic | Non-toxic | 88.4 | 35.9 |  | 89.1 | 105.4 | 126 | 61.3 | 74.3 | 111 | 34.9 | 51.7 | 36.9 | 39.8 | 45.8 | 44.3 | 15.1 | 21.4 | 27.1 | 
4 | COc1ccc(-c2nnc(S)[nH]2)cc1 | Non-toxic | Non-toxic | 73.3 |  |  | 100 | 104.5 | 133 | 64.8 | 75 | 79.5 | 49.7 | 53.2 | 32.3 | 59.3 | 32.4 | 33.7 |  | 17.9 | 37.9 | inhibition in vivo at 200 mg/kg (Mus musculus [25]): 16.9%
5 | COc1ccc(CCC2=NC(=S)N=N2)cc1 | Non-toxic | Non-toxic | 116.2 | 24.3 | 23.3 | 78.2 | 87.6 | 80.5 | 73.6 | 66.3 | 54 | 46.8 | 46.4 | 25.3 | 50 | 42.1 | 36.3 | 25.5 |  | 51.3 | inhibition in vivo at 200 mg/kg (Mus musculus [5]): 16.6%; inhibition in vivo at 200 mg/kg (Mus musculus [7]): 15%; inhibition in vivo at 100 mg/kg (Mus musculus [8]): 30.8%
6 | COc1cc(CC2=NC(=S)N=N2)cc(OC)c1OC | Non-toxic | Non-toxic | 115.1 |  | 38.1 | 77.3 | 104.5 | 65 | 57.8 | 77 | 60 | 46 | 49.8 | 42.5 | 35.6 | 45.6 | 36.2 | 26.4 | 25.9 | 18.3 | inhibition in vivo at 100 mg/kg (Mus musculus [8]): 23.1%
